According to paper PMC9471048, “The signaling and selectivity of α‐adrenoceptor agonists for the human α2A, α2B and α2C‐adrenoceptors and comparison with human α1 and β‐adrenoceptors” (Pharmacology Research & Perspectives, 2022):
Read-outs that look alike come from different tables or passages of the source.

Experiments:
[1] = target: T1, human α2A‐adrenoceptor (Homo sapiens, UniProt P08913)
T1 sequence (P08913 1-465): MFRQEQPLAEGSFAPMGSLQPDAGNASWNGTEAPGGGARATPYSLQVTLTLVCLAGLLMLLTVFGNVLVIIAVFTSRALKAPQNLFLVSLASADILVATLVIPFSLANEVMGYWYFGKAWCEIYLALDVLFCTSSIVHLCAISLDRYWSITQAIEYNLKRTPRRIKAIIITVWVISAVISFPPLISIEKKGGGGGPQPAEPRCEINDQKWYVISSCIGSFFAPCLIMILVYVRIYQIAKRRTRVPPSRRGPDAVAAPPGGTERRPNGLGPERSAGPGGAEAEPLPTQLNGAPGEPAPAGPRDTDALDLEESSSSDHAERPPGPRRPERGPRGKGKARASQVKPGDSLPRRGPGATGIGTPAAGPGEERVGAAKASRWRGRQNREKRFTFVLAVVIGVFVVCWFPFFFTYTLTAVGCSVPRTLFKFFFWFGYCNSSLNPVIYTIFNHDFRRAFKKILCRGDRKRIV

[2] = target: T2, human α2C‐adrenoceptor (Homo sapiens, UniProt P18825)
T2 sequence (P18825 1-462): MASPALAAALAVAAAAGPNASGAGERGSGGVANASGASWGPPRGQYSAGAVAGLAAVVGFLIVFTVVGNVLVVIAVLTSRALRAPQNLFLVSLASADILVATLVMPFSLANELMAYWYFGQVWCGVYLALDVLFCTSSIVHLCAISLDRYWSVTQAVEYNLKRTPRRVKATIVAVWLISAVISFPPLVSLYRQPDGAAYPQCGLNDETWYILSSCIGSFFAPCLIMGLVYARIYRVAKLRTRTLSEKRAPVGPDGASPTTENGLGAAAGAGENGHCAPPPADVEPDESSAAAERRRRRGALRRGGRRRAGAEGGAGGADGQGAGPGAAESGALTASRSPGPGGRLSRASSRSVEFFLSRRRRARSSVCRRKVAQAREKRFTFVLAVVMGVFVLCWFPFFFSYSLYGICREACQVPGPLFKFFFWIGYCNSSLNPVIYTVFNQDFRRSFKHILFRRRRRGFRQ

[3] = target: T1, human α2A‐adrenoceptor; assay: 3H‐rauwolscine whole cell binding in CHO‐α2A cells; parameters: expressed in transfected cells; host or cells: CHO-K1 with CRE-SPAP reporter
[4] = target: T2, human α2C‐adrenoceptor; assay: 3H‐rauwolscine whole cell binding in CHO‐α2C cells; parameters: expressed in transfected cells; host or cells: CHO-K1 with CRE-SPAP reporter
[5] = target: T1, human α2A‐adrenoceptor; assay: ERK1/2‐phosphorylation in CHO‐α2A cells; format: cell-based; parameters: expressed in transfected cells; host or cells: CHO-K1 with CRE-SPAP reporter
[6] = target: T2, human α2C‐adrenoceptor; assay: ERK1/2‐phosphorylation in CHO‐α2C cells; format: cell-based; parameters: expressed in transfected cells; host or cells: CHO-K1 with CRE-SPAP reporter
[7] = CHO‐α2A (cell line 1), absence of forskolin
[8] = CHO‐α2C cells, % inhibition from the 3 μM forskolin control, mean ± SEM
[9] = CHO‐α2C cells, CRE‐SPAP production in the absence of forskolin
[10] = CHO‐α2C cells, log KD from 3H‐rauwolscine binding versus CRE‐SPAP log IC50
[11] = fold, from KD values, 1 = no selectivity
[12] = CHO‐α2C cells, 3H‐rauwolscine whole cell binding, given as negative log KD, mean only (SEM in Table 4), read-out: Log KD (converted)
[13] = CHO‐α2A, maximum response compared to 10 μM PDBu
[14] = CHO‐α2A, read-out: Log EC50, ERK1/2‐phosphorylation (converted)
[15] = CHO‐α2C cells, maximum response compared to 10 μM PDBu, mean ± SEM
[16] = CHO‐α2C cells, given as negative log EC50, mean ± SEM, read-out: Log EC50, ERK1/2‐phosphorylation (converted)

Row | SMILES | IC50 [1] [µM] | Log EC50 (Gs), CRE‐SPAP (without forskolin) [1] | % inhibition, CRE‐SPAP (with forskolin) [2] [%] | IC50 [2] [µM] | Log EC50 (Gs), CRE‐SPAP (without forskolin) [2] | Kd [3] [µM] | Kd [4] [µM] | % 10 μM PDBu, ERK1/2‐phosphorylation [5] [%] | EC50 [5] [nM] | % 10 μM PDBu, ERK1/2‐phosphorylation [6] [%] | EC50 [6] [nM] | Log EC50 (Gs), CRE‐SPAP (without forskolin) [1, 7] | % inhibition, CRE‐SPAP (with forskolin) [2, 8] [%] | Log EC50 (Gs), CRE‐SPAP (without forskolin) [2, 9] | Log efficacy ratio (KD/IC50) [2, 10] | Selectivity ratio α2A vs α2B (higher affinity for α2A) [3, 11] | Kd [4, 12] [µM] | Selectivity ratio α2B vs α2C (higher affinity for α2C) [4, 11] | % 10 μM PDBu, ERK1/2‐phosphorylation [5, 13] [%] | EC50 [5, 14] [nM] | other results
1 | Cc1cccc(C)c1N=C1NCCCS1 [Xylazine] | 0.288 | No response | 81.8 ± 3.6 | 0.178 | No response | 11.5 | 6.03 | 128.3 ± 15.7 | 30.2 | 168.2 ± 22.8 | 72.4 |  |  |  |  |  |  |  |  |  | EC50 [1]: 8.51 µM; Log efficacy ratio (KD/IC50) [1]: 1.60; Log efficacy ratio (KD/IC50) [2]: 1.53; Kd ([3]; Log KD, CHO‐α2A): 11.5 µM; Selectivity ratio α2A vs α2C (higher affinity for α2C) [4]: 1.9; Selectivity ratio α2B vs α2C (higher affinity for α2C) [4]: 1.0; Kd ([4]; Log KD, CHO‐α2C): 6.03 µM
2 | COc1ccc(OC)c(C(O)C(C)N)c1 (stereo not drawn) [Methoxamine] |  |  |  |  |  |  |  |  |  |  |  | No response | 72.3 ± 13.6 | No response | 1.01 | 2.5 | 112 | 2.1 | 120.9 ± 29.4 | 6030 | IC50 ([1]; IC50 (Gi), CRE‐SPAP (with forskolin), CHO‐α2A, 3 μM forskolin): > 100 µM; IC50 ([2]; Log IC50 (Gi), CRE‐SPAP (with forskolin), CHO‐α2C cells, inhibition of 3 μM forskolin‐stimulated CRE‐SPAP production, given as negative log IC50, mean ± SEM): 11 µM; Kd ([3]; 3H‐rauwolscine whole cell binding, ^app: apparent KD, IC50 from extrapolated curve as not all specific binding was inhibited, read-out: Log KD (apparent), CHO‐α2A (converted)): 93.3 µM; Kd ([3]; CHO‐α2A, 3H‐rauwolscine whole cell binding, given as negative log KD, read-out: Log KD (binding) (converted)): 93.3 µM; Selectivity ratio α2A vs α2C (higher affinity for α2A) [3, 11]: 1.2; Kd ([4]; 3H‐rauwolscine whole cell binding, ^app: apparent KD, IC50 from extrapolated curve as not all specific binding was inhibited, read-out: Log KD (apparent), CHO‐α2C (converted)): 112 µM; % 10 μM PDBu, ERK1/2‐phosphorylation [6, 15]: 131.0 ± 19.2%; EC50 [6, 16]: 2340 nM
3 | CNCC(O)c1ccc(O)cc1 (stereo not drawn) [Synephrine] | 9.55 | No response | 88.1 ± 8.5 | 34.7 | No response | 89.1 | 120 | 114.5 ± 12.3 | 776 | 112.8 ± 10.7 | 3240 |  |  |  |  |  |  |  |  |  | % inhibition, CRE‐SPAP (with forskolin) [1]: 75.6 ± 5.6%
4 | C[C@H](N)[C@H](O)c1cccc(O)c1 [Metaraminol] | 3.16 |  |  | 0.794 |  |  |  |  |  |  |  | No response | 85.5 ± 1.8 | No response | 1.56 | 1.5 | 28.8 | 2.7 | 136.4 ± 13.9 | 240 | % inhibition, CRE‐SPAP (with forskolin) ([1]; CHO‐α2A (cell line 1), % inhibition from the 3 μM forskolin control, inhibition only): 87.0 ± 1.3%; Log efficacy ratio (KD/IC50) ([1]; CHO‐α2A, binding KD / Gi IC50 of CRE‐SPAP): 1.22; Kd ([3]; read-out: Log KD (binding) (converted)): 52.5 µM; Kd ([3]; read-out: Log KD, CHO‐α2A (converted)): 52.5 µM; Kd ([4]; 3H‐rauwolscine whole cell binding, living cells, negative log KD, mean ± SEM, read-out: Log KD, CHO‐α2C (converted)): 28.8 µM; Selectivity ratio α2A vs α2C (higher affinity for α2C) [4, 11]: 1.8; % 10 μM PDBu, ERK1/2‐phosphorylation [6, 15]: 158.8 ± 22.2%; EC50 [6, 16]: 158 nM
